18 compounds from US12157746B2, “Tetrahydro-1H-pyrazino[2,1-a]isoindolylquinoline compounds for the treatment of autoimmune disease” (F. HOFFMANN-LA ROCHE AG, priority 2018, dated 2024) can be followed below.

For this experiment, the target named is T1, human TLR8 (Homo sapiens, UniProt Q9NR97).
T1 sequence (Q9NR97 27-1041): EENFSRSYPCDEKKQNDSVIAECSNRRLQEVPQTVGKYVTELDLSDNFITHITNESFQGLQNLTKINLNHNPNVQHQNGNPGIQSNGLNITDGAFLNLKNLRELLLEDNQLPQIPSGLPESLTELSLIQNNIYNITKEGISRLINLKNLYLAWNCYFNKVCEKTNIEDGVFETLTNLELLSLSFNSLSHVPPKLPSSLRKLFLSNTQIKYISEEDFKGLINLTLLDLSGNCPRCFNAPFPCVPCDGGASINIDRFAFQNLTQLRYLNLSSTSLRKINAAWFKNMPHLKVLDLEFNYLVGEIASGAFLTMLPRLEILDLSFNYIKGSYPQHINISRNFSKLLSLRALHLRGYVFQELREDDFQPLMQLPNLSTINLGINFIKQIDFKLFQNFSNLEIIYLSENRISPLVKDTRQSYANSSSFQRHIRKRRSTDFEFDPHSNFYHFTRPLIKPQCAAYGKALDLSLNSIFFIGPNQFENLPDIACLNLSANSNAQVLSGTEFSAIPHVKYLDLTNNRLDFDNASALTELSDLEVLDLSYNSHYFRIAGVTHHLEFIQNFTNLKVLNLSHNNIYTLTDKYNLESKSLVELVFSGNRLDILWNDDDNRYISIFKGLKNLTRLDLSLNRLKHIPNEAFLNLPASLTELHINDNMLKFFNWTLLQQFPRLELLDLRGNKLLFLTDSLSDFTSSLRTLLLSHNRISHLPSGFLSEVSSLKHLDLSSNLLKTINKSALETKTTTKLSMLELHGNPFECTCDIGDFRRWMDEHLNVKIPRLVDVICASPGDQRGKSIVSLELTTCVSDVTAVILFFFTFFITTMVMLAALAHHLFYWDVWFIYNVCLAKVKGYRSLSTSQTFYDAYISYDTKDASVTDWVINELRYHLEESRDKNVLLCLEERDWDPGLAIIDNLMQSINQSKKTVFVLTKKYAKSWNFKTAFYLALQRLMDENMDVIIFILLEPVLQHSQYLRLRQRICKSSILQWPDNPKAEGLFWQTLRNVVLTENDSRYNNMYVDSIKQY
The experiment is described as follows: HEK293-Blue-hTLR-8 cells assay. Conditions: HEK293-Blue-hTLR8 cells, R848 stimulation, 20 hrs, SEAP reporter; read-out: HEK/hTLR8 IC50. In kind it is cell-based. From the text:
HEK293-Blue-hTLR-8 Cells Assay:
A stable HEK293-Blue-hTLR-8 cell line was purchased from InvivoGen (Cat. #: hkb-htlr8, San Diego, California, USA). These cells were originally designed for studying the stimulation of human TLR8 by monitoring the activation of NF-κB. A SEAP (secreted embryonic alkaline phosphatase) reporter gene was placed under the control of the IFN-β minimal promoter fused to five NF-κB and AP-1-binding sites. The SEAP was induced by activating NF-κB and AP-1 via stimulating HEK-Blue hTLR8 cells with TLR8 ligands. Therefore the reporter expression was declined by TLR8 antagonist under the stimulation of a ligand, such as R848, for incubation of 20 hrs. The cell culture supernatant SEAP reporter activity was determined using QUANTI-Blue™kit (Cat. #: rep-qb1, Invivogen, San Diego, Ca, USA) at a wavelength of 640 nm, a detection medium that turns purple or blue in the presence of alkaline phosphatase.
HEK293-Blue-hTLR8 cells were incubated at a density of 250,000-450,000 cells/mL in a volume of 170 μL in a 96-well plate in Dulbecco's Modified Eagle's medium (DMEM) containing 4.5 g/L glucose, 50 U/mL penicillin, […], […], 2 mM L-glutamine, 10% (v/v) heat-inactivated fetal bovine serum with addition of 20 μL test compound 1n a serial dilution in the presence of final DMSO at 1% and 10 μL of 60 uM R848 in above DMEM, perform incubation under 37° C. in a CO2 incubator for 20 hrs. Then 20 μL of the supernatant from each well was incubated with 180 μL Quanti-blue substrate solution at 37° C. for 2 hrs and the absorbance was read at 620-655 nm using a spectrophotometer. The signaling pathway that TLR8 activation leads to downstream NF-κB activation has been widely accepted, and therefore similar reporter assay was modified for evaluating TLR8 antagonist.
On to `C[C@@H]1CN(c2ccc(C#N)c3ncccc23)C[C@@H]2c3ccc(N4CCOC5(CNC5)C4)cc3CN12` [Example 24, 5-[(4R,10bS)-4-methyl-8-(5-oxa-2,8-diazaspiro[3.5]nonan-8-yl)-3,4,6,10b-tetrahydro-1H-pyrazino[2,1-a]isoindol-2-yl]quinoline-8-carbonitrile], for which the IC50 is under 3.2 nM.

On to `C[C@@H]1CN(c2ccc(C#N)n3nccc23)C[C@@H]2c3ccc(N[C@H]4CNC[C@H]4F)cc3CN12` [Example 98, 4-[(4R,10bS)-8-[[(3S,4R)-4-fluoropyrrolidin-3-yl]amino]-4-methyl-3,4,6,10b-tetrahydro-1H-pyrazino[2,1-a]isoindol-2-yl]pyrazolo[1,5-a]pyridine-7-carbonitrile], for which the IC50 was 8.8 nM.

Take `C[C@@H]1CN(c2ccc(C#N)n3nccc23)C[C@@H]2c3ccc(N4C[C@H](N)[C@@](C)(O)C4)cc3CN12` [Example 109, 4-[(4R,10bS)-8-[(3S,4S)-4-amino-3-hydroxy-3-methyl-pyrrolidin-1-yl]-4-methyl-3,4,6,10b-tetrahydro-1H-pyrazino[2,1-a]isoindol-2-yl]pyrazolo[1,5-a]pyridine-7-carbonitrile]: the IC50 came out at 6.7 nM.

Turning to `C[C@@H]1CN(c2ccc(C#N)c3ncccc23)C[C@@H]2c3ccc(N[C@@H]4CNC[C@H]4F)cc3CN12` [Example 33, 5-[(4R,10bS)-8-[[(3R,4R)-4-fluoropyrrolidin-3-yl]amino]-4-methyl-3,4,6,10b-tetrahydro-1H-pyrazino[2,1-a]isoindol-2-yl]quinoline-8-carbonitrile], the IC50 was under 3.2 nM.

As for `C[C@@H]1CN(c2ccc(C#N)c3ncccc23)C[C@@H]2c3ccc(N4CCNC[C@@H](O)C4)cc3CN12` [Example 53B, 5-[(4R,10bS)-8-[(6R)-6-hydroxy-1,4-diazepan-1-yl]-4-methyl-3,4,6,10b-tetrahydro-1H-pyrazino[2,1-a]isoindol-2-yl]quinoline-8-carbonitrile], the IC50 was under 3.2 nM.

On to `C[C@@H]1CN(c2ccc(C#N)c3ncccc23)C[C@@H]2c3ccc(N4C[C@H](N)[C@@H](F)C4)cc3CN12` [Example 49, 5-[(4R,10bS)-8-[(3S,4S)-3-amino-4-fluoro-pyrrolidin-1-yl]-4-methyl-3,4,6,10b-tetrahydro-1H-pyrazino[2,1-a]isoindol-2-yl]quinoline-8-carbonitrile], for which the IC50 came to 0.6 nM.

For `C[C@@H]1CN(c2ccc(C#N)c3ncccc23)C[C@@H]2c3ccc(N4CCC(C)(N)CC4)cc3CN12` [Example 51, 5-[(4R,10bS)-8-(4-amino-4-methyl-1-piperidyl)-4-methyl-3,4,6,10b-tetrahydro-1H-pyrazino[2,1-a]isoindol-2-yl]quinoline-8-carbonitrile], the IC50 was under 0.3 nM.

As to `C[C@@H]1CN(c2ccc(C#N)c3ncccc23)C[C@@H]2c3ccc(N4CCOC[C@H](N)C4)cc3CN12` [Example 54A, 5-[(4R,10bS)-8-[(6R)-6-amino-1,4-oxazepan-4-yl]-4-methyl-3,4,6,10b-tetrahydro-1H-pyrazino[2,1-a]isoindol-2-yl]quinoline-8-carbonitrile], the IC50 is under 3.2 nM.

Regarding `C[C@@H]1CN(c2ccc(C#N)n3nccc23)C[C@@H]2c3ccc(N4CC[C@@H](N)C4)cc3CN12` [Example 96, 4-[(4R,10bS)-8-[(3R)-3-aminopyrrolidin-1-yl]-4-methyl-3,4,6,10b-tetrahydro-1H-pyrazino[2,1-a]isoindol-2-yl]pyrazolo[1,5-a]pyridine-7-carbonitrile], the IC50 turned out to be 4 nM.

With `C[C@@H]1CN(c2ccc(C#N)n3ncc(F)c23)C[C@@H]2c3ccc(N4C[C@H](N)[C@@](C)(O)C4)cc3CN12` [Example 112, 4-[(4R,10bS)-8-[(3S,4S)-4-amino-3-hydroxy-3-methyl-pyrrolidin-1-yl]-4-methyl-3,4,6,10b-tetrahydro-1H-pyrazino[2,1-a]isoindol-2-yl]-3-fluoro-pyrazolo[1,5-a]pyridine-7-carbonitrile], the IC50 came to 3.6 nM.

`C[C@@H]1CN(c2ccc(C#N)n3nccc23)C[C@@H]2c3ccc(N4CC[C@@](C)(N)C4)cc3CN12` [Example 103, 4-[(4R,10bS)-8-[(3R)-3-amino-3-methyl-pyrrolidin-1-yl]-4-methyl-3,4,6,10b-tetrahydro-1H-pyrazino[2,1-a]isoindol-2-yl]pyrazolo[1,5-a]pyridine-7-carbonitrile]: the IC50 is 4.8 nM.

Turning to `C[C@@H]1CN(c2ccc(C#N)c3ncccc23)C[C@@H]2c3ccc(N4CCNC[C@](C)(O)C4)cc3CN12` [Example 55A, 5-[(4R,10bS)-8-[(6S)-6-hydroxy-6-methyl-1,4-diazepan-1-yl]-4-methyl-3,4,6,10b-tetrahydro-1H-pyrazino[2,1-a]isoindol-2-yl]quinoline-8-carbonitrile], the IC50 is under 3.2 nM.

As for `C[C@@H]1CN(c2ccc(C#N)c3ncccc23)C[C@@H]2c3ccc(N4CCNCC(C)(O)C4)cc3CN12` (stereo partly drawn) [Example 55, 5-[(4R,10S)-8-(6-hydroxy-6-methyl-1,4-diazepan-1-yl)-4-methyl-3,4,6,10b-tetrahydro-1H-pyrazino[2,1-a]isoindol-2-yl]quinoline-8-carbonitrile], the IC50 is under 3.2 nM.

As to `CO[C@@H]1CNC[C@H]1Nc1ccc2c(c1)CN1[C@H](C)CN(c3ccc(C#N)c4ncccc34)C[C@H]21` [Example 34, 5-[(4R,10bS)-8-[[(3R,4R)-4-methoxypyrrolidin-3-yl]amino]-4-methyl-3,4,6,10b-tetrahydro-1H-pyrazino[2,1-a]isoindol-2-yl]quinoline-8-carbonitrile], the IC50 is under 3.2 nM.

For the compound `C[C@@H]1CN(c2ccc(C#N)c3ncccc23)C[C@@H]2c3ccc(N4C[C@@H](N)[C@](C)(O)C4)cc3CN12` [Example 45, 5-[(4R,10bS)-4-methyl-8-[trans-(3R,4R)-4-amino-3-hydroxy-3-methyl-pyrrolidin-1-yl]-3,4,6,10b-tetrahydro-1H-pyrazino[2,1-a]isoindol-2-yl]quinoline-8-carbonitrile], the IC50 is under 3.2 nM.

Turning to `CO[C@H]1CN(c2ccc3c(c2)CN2[C@H](C)CN(c4ccc(C#N)n5nccc45)C[C@H]32)C[C@@H]1N` [Example 95, 4-[(4R,10bS)-8-[(3S,4S)-3-amino-4-methoxy-pyrrolidin-1-yl]-4-methyl-3,4,6,10b-tetrahydro-1H-pyrazino[2,1-a]isoindol-2-yl]pyrazolo[1,5-a]pyridine-7-carbonitrile], the IC50 stood at 4.6 nM.

As for `[2H]c1ccc2c(N3C[C@@H](C)N4Cc5cc(N6CC7CNCC(C6)O7)ccc5[C@H]4C3)ccc(C#N)c2n1` [Example 93, 5-[(4R,10bS)-4-methyl-8-(9-oxa-3,7-diazabicyclo[3.3.1]nonan-3-yl)-3,4,6,10b-tetrahydro-1H-pyrazino[2,1-a]isoindol-2-yl]-2-deuterio-quinoline-8-carbonitrile], the IC50 is 2.1 nM.

As for `CO[C@@H]1CN(c2ccc3c(c2)CN2[C@H](C)CN(c4ccc(C#N)n5ncc(F)c45)C[C@H]32)C[C@H]1N` [Example 113, 4-[(4R,10bS)-8-[(3R,4R)-3-amino-4-methoxy-pyrrolidin-1-yl]-4-methyl-3,4,6,10b-tetrahydro-1H-pyrazino[2,1-a]isoindol-2-yl]-3-fluoro-pyrazolo[1,5-a]pyridine-7-carbonitrile], the IC50 turned out to be 2 nM.
